The assay deals with T1, Na+/K+ ATPase (islet homogenate, ob/ob mice).
T1 construct: gene Atp1a1
The settings on record: read-out: apparent K 0.5; 135 mM Na+, 20 mM K+, Mg2+, pH 7.4, 37 C, 10 min; deoxycholate-treated homogenate; 1 mM ouabain difference.

As to `Nc1ncnc2c1ncn2[C@@H]1O[C@H](COP(=O)(O)OP(=O)(O)OP(=O)(O)O)[C@@H](O)[C@H]1O` [ATP], the Km was 500 µM.
